# Experimental data published in patent publication US20220331341A1, “TREATMENT COMPRISING THE USE OF FXR AGONISTS” (Novartis AG, priority 2019, published 2022).
# How the values were obtained:
# [1] = tested on: HF/NASH mice (hepatic oxidative stress and mitochondrial function); assay: Dietary HF/NASH mouse model, tropifexor treatment for the last 12 of 20 weeks; format: in vivo, C57BL/6J mice
# Source text: Molecular, structural and functional analysis was applied to assess oxidative stress and mitochondria function in NASH model.
# Similar to human disease, transition from steatosis to NASH with fibrosis in NASH mice is associated with mitochondrial dysfunction characterized by structural and functional alterations. Decline in hepatic mitochondrial function is manifested in HF/NASH mice by decreased activities of tricarboxylic acid (TCA) cycle and electron transport chain (ETC) as well as diminished ATP production. This is accompanied by oxidative damage and depletion of antioxidant enzymes. […] This was manifested by a marked increase in mitochondrial function with concomitant restoration of oxidative balance associated with increased antioxidant defenses and decreased oxidative stress.
# [2] = tested on: patients with biopsy-proven NASH and fibrosis stages 2-3; assay: FLIGHT-FXR (NCT02855164) Part C interim analysis at week 12; format: in vivo, human; details: for ALT, LS mean absolute change from baseline to Week 12 (SE) / Body weight, LS mean absolute change from baseline to Week 12 (SE) / GGT, LS mean absolute change from baseline to Week 12 (SE): full analysis set
# Source text: Prespecified endpoints assessed at week 12 included overall safety and changes in alanine aminotransferase (ALT), hepatic fat fraction (HFF), gamma glutamyl transferase (GGT), and body weight.
# [3] = tested on: NASH patients; assay: Study CLJN452A2202 Parts A and B, 12 weeks; format: in vivo, human
smiles,measurement,setting,value
"O=C(O)c1cc(F)c2nc(N3C4CC[C@H]3CC(OCc3c(-c5ccccc5OC(F)(F)F)noc3C3CC3)C4)sc2c1 (stereo partly drawn) [Tropifexor, 2-[(1R,3r,5S)-3-({5-cyclopropyl-3-[2-(trifluoromethoxy)phenyl]-1,2-oxazol-4-yl}methoxy)-8-azabicyclo[3.2.1]octan-8-yl]-4-fluoro-1,3-benzothiazole-6-carboxylic acid]",Liver SOD activity,[1]; 0.3 mg/kg,fully restored
same,GPx activity in serum and liver,[1]; 0.9 mg/kg,restored
same,Liver SOD activity,[1]; 0.9 mg/kg,increased above the levels observed in ND mice
same,Cell death (apoptosis) in liver: cleaved-caspase 3 staining and phospho-p38 protein levels,[1]; 20 weeks HF/NASH diet,attenuated cell death in a dose dependent manner
same,ATP synthesis,[1]; HF/NASH livers,improving
same,Citrate synthase (CS) activity,[1]; HF/NASH livers,dose-dependently restored
same,Complex I and Complex II activities,[1]; HF/NASH livers,restoring
same,Content of all five respiratory chain (OXPHOS) proteins,"[1]; HF/NASH livers, 0.1 mg/kg",full restoration
same,"Expression of mitochondrial biogenesis genes (PGC-1a, Nrf1, Tfam)",[1]; HF/NASH mice,did not lead to changes
same,"Levels of oxidative stress in HF/NASH livers (MDA, 4-HNE, mtDNA)",[1]; liver,markedly decreased
same,Antioxidant gene expression (GPx and GST superfamilies),[1]; liver transcriptome,induced
same,"Expression of Gpx2, Gst family",[1]; liver transcriptome,markedly increased their expression beyond the ND levels
same,"Expression of Gpx3, Gpx8",[1]; liver transcriptome,restored expression of investigated genes to ND levels
same,Serum levels of γ-glutamyltranspeptidase (GGT),[1]; serum,decreased
same,Frequency of serious adverse events,[2]; 140 μg and 200 μg vs placebo,low and comparable across groups
same,Low density lipoprotein-cholesterol (LDL-C),"[2]; 140 μg and 200 μg, 12 weeks",dose-related increase
same,Share of patients with pruritus whose events were of mild (Grade 1) severity,[2]; both Tropifexor groups (140 μg and 200 μg),> 60%
same,Treatment discontinuation rate due to pruritus,[2]; tropifexor 140 μg,2%
same,"ALT, LS mean absolute change from baseline to Week 12 (SE)",[2]; tropifexor 140 μg once daily,−20.1 (4.57) U/L
same,"Body weight, LS mean absolute change from baseline to Week 12 (SE)",[2]; tropifexor 140 μg once daily,−2.46 (0.38) kg
same,"GGT, LS mean absolute change from baseline to Week 12 (SE)",[2]; tropifexor 140 μg once daily,−39.2 (3.70) U/L
same,Prespecified endpoints at week 12,[2]; tropifexor 200 μg,met
same,Treatment discontinuation rate due to pruritus,[2]; tropifexor 200 μg,6%
same,"ALT, LS mean absolute change from baseline to Week 12 (SE)",[2]; tropifexor 200 μg once daily,−23.6 (4.48) U/L
same,"Body weight, LS mean absolute change from baseline to Week 12 (SE)",[2]; tropifexor 200 μg once daily,−3.20 (0.37) kg
same,"GGT, LS mean absolute change from baseline to Week 12 (SE)",[2]; tropifexor 200 μg once daily,−40.9 (3.62) U/L
same,Biologic activity (GGT),[3]; 10 to 90 μg daily for 12 weeks,clear dose response
same,Target engagement (FGF19),[3]; 10 to 90 μg daily for 12 weeks,clear dose response
same,ALT and hepatic fat fraction compared to placebo,"[3]; all doses (10, 30, 60 and 90 μg), 12 weeks",reduced
same,Tolerability,[3]; up to 90 μg daily,generally well tolerated
